We go through six compounds from ChEMBL document CHEMBL5725527, “Heterocyclic compounds and methods of their use” (2017).

This test has as its target T1, Type-2 angiotensin II receptor (Homo sapiens, UniProt P50052).
T1 sequence (P50052 whole entry): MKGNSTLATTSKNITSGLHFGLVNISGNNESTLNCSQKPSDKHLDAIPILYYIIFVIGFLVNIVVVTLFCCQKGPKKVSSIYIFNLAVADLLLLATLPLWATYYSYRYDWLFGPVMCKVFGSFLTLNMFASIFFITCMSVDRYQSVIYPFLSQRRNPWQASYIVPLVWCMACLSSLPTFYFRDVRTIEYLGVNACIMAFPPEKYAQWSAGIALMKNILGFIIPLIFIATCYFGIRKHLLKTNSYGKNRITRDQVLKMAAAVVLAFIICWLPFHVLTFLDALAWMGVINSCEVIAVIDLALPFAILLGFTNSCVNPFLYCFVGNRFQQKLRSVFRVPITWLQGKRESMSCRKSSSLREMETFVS
The test can be described thus: AT2 Receptor Binding Assay: 120 μL membrane (5 mg protein/well) was incubated with 15 μL of [125I]-CGP42112A and 15 μL of compound at RT for 1.5 hrs. The binding reaction was stopped by rapid filtration through Unifilter GF/C plates (presoaked in 0.3% (v:v) BSA).Plate was washed three times with ice cold wash buffer.The filtration plates were dried at 37° C. overnight.50 μL of scintillation cocktail was added to each well.Radioactivity was determined using MicroBetaTriluxmicroplate scintillation counter.
As a reminder, the IC50 is the concentration that gives 50% inhibition. On to `O=C(O)[C@@H]1Cc2c(ccc(O)c2OCc2ccccc2)CN1C(=O)C(c1ccccc1)c1ccccc1`, for which the IC50 was 33.5 nM.
The result for `COc1ccc2c(c1OCC#Cc1ccc(F)cc1)C[C@@H](C(=O)NS(=O)(=O)N(C)C)N(C(=O)C(c1ccccc1)c1ccccc1)C2` reads 206 nM; that for `COc1ccc2c(c1OCc1ccccc1)C[C@@H](C(=O)NS(=O)(=O)N(C)C)N(C(=O)C(c1ccccc1)c1ccccc1)C2`, 10.9 nM.
Take `COc1ccc2c(c1OCC#Cc1ccc(F)cc1)C[C@@H](C(=O)O)N(C(=O)C(c1ccccc1)c1ccccc1)C2`: the IC50 was 133 nM.
Under `COc1ccc2c(c1OCC#Cc1ccccc1)C[C@@H](C(=O)NS(=O)(=O)N(C)C)N(C(=O)C(c1ccccc1)c1ccccc1)C2` stands 79.5 nM.
Regarding `COc1ccc2c(c1OCC#Cc1ccccc1)C[C@@H](C(=O)O)N(C(=O)C(c1ccccc1)c1ccccc1)C2`, the IC50 stood at 96.2 nM.
